Tested on: HepG2^AKO cells
Experiment: Seahorse cellular respiration (OCR) in ATGL knockout cells
Format: cell-based, human
Details: NG-497 40 μM, galactose medium
Protocol: (a) HepG2 cells were treated with NG-497 (40 μM) or DMSO as control and oxygen consumption rate (OCR) was determined in Seahorse growth medium supplemented with glucose (25 mM) using the SeaHorse XF96 extracellular flux analyzer. OCR was determined after subsequent addition of 1 μM Oligomycin (ATP-synthase inhibitor), 1 μM FCCP (uncoupler), and 1 μM antimycin/rotenone (electron transport chain inhibitors). (b) Statistical analysis of basal respiration (BR), maximal respiration (MR), proton leak (PL), ATP production (ATPP), spare respiratory capacity (SRC), and nonmitochondrial oxygen consumption (NMOC) of control and NG-497-treated cells. (c) Extracellular acidification rate (ECAR) and (d) OCR of HepG2 cells were determined in Seahorse growth medium supplemented with glucose (25 mM) or galactose (10 mM). […] Growth of cells expressing (HepG2^control) or lacking functional ATGL (HepG2^AKO) was determined using a BioRad cell analyzer. ATGL expression was analyzed by Western blotting analysis using an anti-ATGL antibody and GAPDH as a loading control (inset). (h) Acylglycerol content of HepG2^control and HepG2^AKO cells was determined by a commercial kit (TG Infinity reagent, Thermo Fisher Scientific). […] Statistical significance was determined via Student’s t test (*p < 0.05; **p < 0.01; ***p < 0.001) or ANOVA followed by Bonferroni post hoc test (^#p < 0.05; ^##p < 0.01; ^###p < 0.001). […]

CCOc1ccc(-c2cc(OC)cc(C(=O)OC(C)C)n2)cc1 [NG-497] was tested, and the effect on respiration was “no effect on respiration”.
